Source: BindingDB's records for patent US20250230171 (Moma Therapeutics, 2025)

Molecular target: T1, DNA polymerase theta (POLQ) (2-894)
T1 construct: 2-894
Test: ATPase Assay
Protocol: POLθ-mediated ATP hydrolysis was measured using the ADP-Glo Kinase Assay (Promega Corporation, Madison, WI). Reactions were performed in white 384-well small-volume microplates (Greiner Bio-One, Frickenhausen, Germany) using a total volume of 15 μL. The ATPase reaction consisted of 1 nM biotinylated Avi-POLθ[2-894], 5 nM of a 50 nucleotide poly-thymine repeat single-stranded DNA (PolyT(50) ssDNA), and 100 μM ATP in 5 μL of assay buffer (50 mM Tris, pH 7.5, 80 mM KCl, 10 MgCl2, 1 mM DTT, 5% glycerol, 0.01% BSA, 0.01% Tween-20). Inhibition of POLΘATPase activity was determined by preparing 11-point serial dilutions of the test compounds in 100% DMSO, then transferring 30 nL of the compounds into the ATPase reaction using an Echo acoustic liquid handler (Beckman Coulter, Brea, CA). DMSO-treated wells containing either all of the reaction components (1 nM biotinylated Avi-POLθ[2-894], 5 nM PolyT(50) ssDNA, 100 μM ATP) or with assay buffer substituted for the biotinylated Avi-POLθ[2-894](0 nM biotinylated Avi-POLθ[2-894], 5 nM PolyT(50) ssDNA, 100 μM ATP) were used to define the maximum and minimum response in the assay. Following a one-hour incubation at ambient temperature, 5 μL of ADP-Glo Reagent was added to the ATPase reaction, and this mixture was allowed to incubate at ambient temperature for an additional hour. Lastly, 5 μL of Kinase Detection Reagent was added, followed by a third one-hour incubation at ambient temperature. The reagent concentrations listed represent the amounts only in the 5 μL ATPase reaction volume.

IC50 [nM]	Compound
8	COc1cnc(Cl)cc1-c1cc(C)ncc1C(=O)Nc1nc2c(s1)CN(C(=O)c1cccnc1Cl)C2 [US20250230171, Compound 524]
8	COc1cnc(Cl)cc1-c1cc(C)ncc1C(=O)Nc1nc2c(s1)CN(C(=O)c1cncn1C1CC1)C2 [US20250230171, Compound 527]
32.5	COc1ncc(C#N)cc1-c1cc(C)ncc1C(=O)Nc1nc2c(s1)CN(C(=O)c1ccc(C(F)F)cn1)C2 [US20250230171, Compound 540]
32.5	COc1ccc(C(=O)N2Cc3nc(NC(=O)c4cnc(C)cc4-c4cc(Cl)ncc4OC)sc3C2)nn1 [US20250230171, Compound 545]
8	COc1cc2nn(C)cc2cc1-c1cc(C)ncc1C(=O)Nc1nc2c(s1)CN(C(=O)c1cccnc1OC)C2 [US20250230171, Compound 533]
32.5	COc1cnc(Cl)cc1-c1cc(C)ncc1C(=O)Nc1nc2c(s1)CN(C(=O)c1cncc(C(F)F)n1)C2 [US20250230171, Compound 541]
8	COc1cnc(Cl)cc1-c1cc(C)ncc1C(=O)Nc1nc2c(s1)CN(C(=O)c1cnn(C(F)(F)F)c1)C2 [US20250230171, Compound 513]
8	COc1cnc(Cl)cc1-c1cc(C)ncc1C(=O)Nc1nc2c(s1)CN(C(=O)c1cc(C)nc(C(F)F)n1)C2 [US20250230171, Compound 530]
8	COc1ccc(C(=O)N2Cc3nc(NC(=O)c4cnc(C)cc4-c4cc(C#N)ccc4OC)sc3C2)c(Cl)c1 [US20250230171, Compound 516]

Continued, compound first:

Compound	IC50 [nM]
COc1ccc2oc(C(=O)N3Cc4nc(NC(=O)c5cnc(C)cc5-c5cc(Cl)ncc5OC)sc4C3)nc2c1 [US20250230171, Compound 472]	8
COc1cnc(Cl)cc1-c1cc(C)ncc1C(=O)Nc1nc2c(s1)CN(C(=O)c1c(C)ncn1C)C2 [US20250230171, Compound 476]	8
COc1cnc(Cl)cc1-c1cc(C)ncc1C(=O)Nc1nc2c(s1)CN(C(=O)c1cc(Cl)nn1C)C2 [US20250230171, Compound 436]	8
COc1cnc(Cl)cc1-c1cc(C)ncc1C(=O)Nc1nc2c(s1)CN(C(=O)c1ccc(C(F)F)c(F)c1)C2 [US20250230171, Compound 403]	8
COc1cnc(Cl)cc1-c1cc(C)ncc1C(=O)Nc1nc2c(s1)CN(C(=O)c1cnc(C(F)F)cc1C)C2 [US20250230171, Compound 466]	8
COc1cnc(Cl)cc1-c1cc(C)ncc1C(=O)Nc1nc2c(s1)CN(C(=O)c1cccc3nccn13)C2 [US20250230171, Compound 455]	8
COc1cc(Cl)ccc1C(=O)N1Cc2nc(NC(=O)c3cnc(C)cc3-c3cc(C#N)ccc3OC)sc2C1 [US20250230171, Compound 467]	8
